Laboratory results: US12414960B2, “Analogues of oleuropein and oleacein and uses thereof” (Attica Sciences Ltd., priority 2020, dated 2025)

Legend:
[1] = ABTS radical cation scavenging assay; format: biochemical; conditions: NS = not statistically significant
Source text: The method of estimating antioxidant capacity, based on the ability to interact with the ABTS.+ radical cation was first performed by Miller et al. in 1993 (Miller, Nicholas et al., Clinical Science, 1993, 84: 407-412, “A novel method for measuring the antioxidant capacity and its application to monitoring the antioxidant status in premature neonates”). The mechanism of interaction of the antioxidant agents to be examined with the ABTS.+ radical is similar to that of the DPPH. radical, which can be inactivated either by the addition of an electron or by the addition of a hydrogen atom. However, unlike the DPPH. radical, which is a stable radical from the beginning, the ABTS.+ radical must be produced by the oxidation of ABTS. Thus, in order to estimate the antioxidant capacity of a substance, the formation of the ABTS.+ radical must first precede and the addition of the substance to be examined must follow. The addition of the antioxidant agent is performed after the production of the root ABTS.+ to avoid the interaction of the antioxidant agents with the oxidizing agents used for the oxidation of ABTS.
The oxidation of ABTS takes place either through chemical reactions with various reagents or through the action of enzymes such as peroxidases. The ABTS.+ radical from the moment it is formed is stable, has a green color and absorbs at 730 nm. When a substance with antioxidant activity is added to the solution, then the ABTS.+ radical is reduced by the addition of a hydrogen (or electron) atom, resulting in reduced visual absorption.
To assess the antioxidant capacity of the samples, the oxidation of ABTS was performed enzymatically through the action of horseradish peroxidase (HRP), in the presence of H2O2 (FIG. 3)
The anti-oxidant capacity of the GS compounds was evaluated by performing the ABTS assay as previously described (Kouka, Paraskevi et al., Oxid Med Cell Longev. 2019, Article ID 1870965). Briefly, in a total reaction volume of 1 mL in distilled water (dH2O), ABTS.^+ (1 mM), H2O2 (30 μM), and horseradish peroxidase (HRP) (6 μM) in 50 mM phosphate-buffered saline were added. The solution was incubated for 45 min at room temperature (RT) in the dark. Finally, 10 μL of the tested GS compound at various concentrations was added, and the absorbance was monitored on a Hitachi U-1900 radio beam spectrophotometer (serial no. 2023-029; Hitachi Ltd.) at 730 nm. In each experiment, a blank without the HRP was used, while the ABTS.^+ radical solution without the extract was used as the control. The RSC percentage of the tested extracts was calculated using the following equation: RSC (%)=[(ODcontrol−ODcompound)/ODcontrol]×100, where ODcontrol and OD sample are the optical density (OD) values of the control and the test sample, respectively.

HepG2 liver cancer cells = test: XTT cell growth assay, HepG2; format: cell-based, human; conditions: Homo sapiens, HepG2, 24 h, NS = not statistically significant, read-out: Effectiveness to suppress HepG2 cell growth (cell growth inhibition)
Source text: (§1) The XTT assay is used to measure cellular metabolic activity as an indicator of cell viability, proliferation and cytotoxicity. This non-radioactive, colorimetric assay system was first described by Scudiero, et al. in 1988 (Paull, Kenneth D. et al., J Heterocycl Chem, 1988, 25: 911-914; Scudiero, Dominic A. et al., Cancer Res, 1988, 48: 4827-4833) and improved in subsequent years by several other investigators (Weislow, Owen S. et al., J Natl Cancer Inst, 1989, 81(8): 577-586; Roehm, N. W. et al., J Immunol Methods, 1991, 142: 257-265).
(§2) The XTT assay is based on the reduction of a yellow tetrazolium salt (sodium 3′-[1-(phenylaminocarbonyl)-3,4-tetrazolium]-bis (4-methoxy6-nitro) benzene sulfonic acid hydrate or XTT) to an orange formazan dye by metabolically active cells (FIG. 8). The formazan dye formed is soluble in aqueous solutions and is directly quantified using a scanning multiwell spectrophotometer (ELISA reader). An increase in number of living cells results in an increase in the overall activity of mitochondrial dehydrogenases in the sample. This increase directly correlates to the amount of orange formazan formed, as monitored by the absorbance. Reduced number of living cells leads to reduced metabolism of quaternary salt and therefore reduced absorption.
(§3) Cell viability was assessed using the XTT assay kit (Roche, Mannheim, Germany) as described previously (Kouka, Paraskevi et al., Oxid Med Cell Longev. 2019, Article ID 1870965). Briefly, cancer cells per well were cultured in a 96-well plate in Dulbecco's modified Eagle's medium (DMEM). Following a 24 h incubation, 5, 10 and 50 μM of the tested GS compound was diluted in a serum-free DMEM and administered for 24 h. Subsequently, 50 μL of the XTT reagent (50:1) was added to each well. After 4 h of incubation, the absorbance was monitored at 450 nm and also at 630 nm as a reference wavelength in a BioTek ELx800 microplate reader (BioTek Instruments Inc., Winooski, VT, USA). As a negative control, samples containing serum-free DMEM only were used.
Hep G2 (or HepG2) is a human liver cancer cell line. Hep G2 is an immortal cell line which was derived from the liver tissue of an adolescent with a well-differentiated hepatocellular carcinoma. Hep G2 cells are a suitable in vitro model system for the study of polarized human hepatocytes.
(§4) The effects of exemplary compounds on cancer cell lines and one non-tumorigenic cell line (control) were investigated using a high throughput screening assay. More specifically, the effects of the GS compounds on cell growth was evaluated by the XTT assay for cell lines HepG2, HeLa, MCF7 ER+, MDA-MB-231, and MKN-45, and by the Cell Glo luminescence assay for cell lines MIA PaCa-2, HCT-116, MCF-10A, and PANC-1.

[2] = tested on: HeLa cervical cancer cells; test: XTT cell growth assay, HeLa; format: cell-based, human; conditions: Homo sapiens, HeLa, 24 h, NS = not statistically significant, read-out: Effectiveness to suppress HeLa cell growth (cell growth inhibition)
Source text: as §1, §2, §3
HeLa is a human immortal cell line used in scientific research. It is the oldest and most commonly used human cell line. The line was derived from cervical cancer cells taken on Feb. 8, 1951 from Henrietta Lacks, a patient who died of cancer on Oct. 4, 1951.
as §4

[3] = tested on: MCF-7 ER+ breast cancer cells; test: XTT cell growth assay, MCF-7 ER+; format: cell-based, human; conditions: Homo sapiens, MCF7, 24 h, NS = not statistically significant, read-out: Effectiveness to suppress MCF7 cell growth (cell growth inhibition)
Source text: as §1, §2, §3
MCF-7 ER+ is a human breast cancer cell line isolated in 1970 from a person. Prior to MCF-7, it was not possible for cancer researchers to obtain a mammary cell line that was capable of living longer than a few months.
as §4

[4] = tested on: MDA-MB-231 triple negative breast cancer cells; test: XTT cell growth assay, MDA-MB-231; format: cell-based, human; conditions: Homo sapiens, MDA-MB-231, 24 h, NS = not statistically significant, read-out: Effectiveness to suppress MDA-MB-231 cell growth (cell growth inhibition)
Source text: as §1, §2, §3
MDA-MB-231 is a human epithelial breast cancer cell line that was established from a pleural effusion of a person with a metastatic mammary adenocarcinomal and is one of the most commonly used breast cancer cell lines in medical research laboratories.
as §4

[5] = tested on: HCT-116 colon cancer cells; test: Cell Glo luminescence cell growth assay, HCT-116; format: cell-based, human; conditions: Homo sapiens, HCT-116, 24 h, NS = not statistically significant, read-out: Effectiveness to suppress HCT-116 cell growth (cell growth inhibition)
Source text: (§5) The CellTiter-Glo® Luminescent Cell Viability Assay (Promega Corporation; Madison, WI) is a homogeneous method of determining the number of viable cells in culture based on quantitation of the ATP present, an indicator of metabolically active cells. The homogeneous assay procedure involves adding the single reagent (CellTiter-Glo® Reagent) directly to cells cultured in serum-supplemented medium. The homogeneous “add-mix-measure” format results in cell lysis and generation of a luminescent signal proportional to the amount of ATP present. The amount of ATP is directly proportional to the number of cells present in culture.
(§6) Cancer cells (3,000 cells/well) were harvested in a 96-well plate. Then, the cancer cells were treated with GS compounds and incubated for 24 hours. The MT Cell Viability Substrate, NanoLuc® Enzyme and cell culture medium was equilibrated to 37° C. The 2× RealTime-Glo™ reagent was prepared by diluting the MT Cell Viability Substrate and NanoLuc® Enzyme in 37° C. cell culture medium to a 2× concentration for each reagent. For example, 1 mL of 2× RealTime-Glo™ reagent was prepared by adding 2 μL of MT Cell Viability Substrate, 1,000×, and 2 μL of NanoLuc® Enzyme, 1,000×, to 996 μL of cell culture medium to form the 2× RealTime-Glo™ reagent. Then, an equal volume of 2× RealTime-Glo™ reagent was added to the cancer cells. The cells were kept for ˜20 minutes in the cell culture incubator and then luminescence was measured by using a plate-reading luminometer.
HCT-116 is a human colorectal cancer cell lines that has a mutation in RAS proto-oncogene.
as §4

[6] = Deoxyribose degradation assay (hydroxyl radical scavenging); format: biochemical; conditions: NS = not statistically significant
Experimental: The hydroxyl radical (OH.) is an extremely reactive in biological systems and has been implicated as highly damaging species in free radical pathology, capable of damaging biomolecules of the living cells. These radical combines with nucleotides in DNA and cause strand breakage leading to carcinogenesis, mutagenesis and cytotoxicity. Hydroxyl radical (OH.) scavenging capacity of an extract is directly related to its antioxidant activity.
The effect of extracts on hydroxyl radicals was assayed by using the deoxyribose method. 2-Deoxyribose is degraded on exposure to hydroxyl radicals generated by Fenton's reaction. The ability to neutralize the OH. is estimated as the rate of inhibition of the oxidation of 2-deoxyribose by the OH. (FIG. 5).
The measurement of the hydroxyl radical scavenging activity was evaluated for each of the GS compound by evaluating the pink chromogen absorption at 532 nm by spectrophotometry as described previously (Perjesi, Pal et al., Open Med Chem J., 2011, 5: 61-67

[7] = tested on: MKN-45 gastric cancer cells; test: XTT cell growth assay, MKN-45; format: cell-based, human; conditions: Homo sapiens, MKN-45, 24 h, NS = not statistically significant, read-out: Effectiveness to suppress MKN-45 cell growth (cell growth inhibition)
Source text: as §1, §2, §3
MKN-45 is a human gastric adenocarcinoma, established from the poorly differentiated adenocarcinoma of the stomach (medullary type) of a person.
as §4

pACLY (S455) = test: ELISA of pACLY (S455) / ACLY enzymatic activity in PANC-1 cells; format: cell-based, human; conditions: 5 μM
Experimental: ELISA assay was used to evaluate the effect of GS compounds on protein activity levels in PANC-1 cancer cells. PANC-1 cells were serum-starved overnight and then treated with rIGF1 (100 ng/mL) for 24 hours, with or without GS27 (5 μM). The levels of the following proteins were evaluated by ELISA assay: a) p70 S6 (T389) (cat no. 54164C, Cell Signaling); b) pAKT (S473), (cat no. 80895, Cell Signaling); c) pACLY (S455), (cat no. okag1672, Avivasysbio); d) pAMPK (T172) (cat no. 7959C, Cell Signaling) and e) p65/NFKB (S536), (cat no. 7173, Cell Signaling).
PANC-1 is a human pancreatic ductal adenocarcinoma cell line derived from the carcinoma of a person.
The molecular mechanism of action of GS27, a compound that has exerted potent anti-cancer activity in different cancer cell lines including pancreatic cancer cells, was investigated. Oleacein has been implicated to have anti-inflammatory and metabolic effects, thus the potential effects of GS27 in different metabolic and inflammatory pathways were evaluated. Specifically, the protein levels of p70 S6 (T389), pAKT (S473), pACLY (S455), pAMPK (T172) and p65/NFKB (S536) were evaluated by ELISA assay in PANC-1 pancreatic cancer cells treated with 5 μM GS27. GS27 reduced p70 S6 and AKT phosphorylation levels, while it increased AMPK phosphorylation.
The effects of different GS compounds on ACLY enzymatic activity were evaluated by ELISA assay in PANC-1 pancreatic cancer cells. […] This finding is unexpected, since GS21 has a very similar structure with GS27, with the only difference being the presence of an oxygen atom in ester GS21 instead of a sulfur atom in thioester GS27.

[8] = tested on: MIA PaCa-2 pancreatic cancer cells; test: Cell Glo luminescence cell growth assay, MIA PaCa-2; format: cell-based, human; conditions: Homo sapiens, MIA PaCa-2, 24 h, NS = not statistically significant, read-out: Effectiveness to suppress MIA PaCa-2 cell growth (cell growth inhibition)
Source text: as §5, §6
MIA PaCa-2 is a human pancreatic ductal adenocarcinoma cell line derived from the carcinoma of a person.
as §4

ABTS Radical Cation Scavenging Assay IC50 [1]	Deoxyribose Degradation Assay IC50 [6]	SMILES	inhibition at 50 µM (HepG2 liver cancer cells)	inhibition at 50 µM [2]	inhibition at 50 µM [3]	inhibition at 50 µM [4]	inhibition at 1 µM [5]	inhibition at 50 µM [7]	ACLY enzymatic activity (ELISA) (pACLY (S455))	inhibition at 50 µM [8]
66 μg extract/mL	–	C/C=C1/[C@H](OC2OC(CO)C(O)C(O)C2O)OC=C(C(=O)O)[C@H]1CC(=O)OCCc1cccc(O)c1 (stereo in doubt) [GS14, (2S,4S,E)-3-ethylidene-4-(2-(3-hydroxyphenethoxy)-2-oxoethyl)-2-{[(2R,3S,4R,5R,6S)-3,4,5-trihydroxy-6-(hydroxymethyl)tetrahydro-2H-pyran-2-yl]oxy}-3,4-dihydro-2H-pyran-5-carboxylic acid]	10%	29.5%	28.4%	38.2%	26.4%	–	–	–
–	14.4 μg extract/mL	C/C=C(/C=O)[C@@H](CC=O)CC(=O)OCCc1ccccc1 [GS21, (35,4E)-4-formyl-3-(2-oxoethyl)-4-hexenoic acid 2-phenylethyl ester]	–	75.8%	66%	52.5%	21.5%	49.4%	small effect	–
–	16.8 μg extract/mL	C/C=C(/C=O)[C@@H](CC=O)CC(=O)OCCC1CCCCC1 [GS22, 2-cyclohexylethyl (S,E)-4-formyl-3-(2-oxoethyl)hex-4-enoate]	66.8%	48.6%	–	48%	–	35.8%	–	28%
